The text below walks through data of patent US4798892A, “2-hydroxypropylamine heteroaryl ester derivatives” (priority 1986, dated 1989).

Data set [1] deals with T1, beta adrenergic receptor (guinea pig right atria) (Cavia porcellus, UniProt H0W3H1).
T1 construct: guinea pig right atria and guinea pig tracheal strips mounted in a tissue bath; from tissue; host or cells: guinea pig right atria, spontaneously beating
Kind of data set: Beta-blocking activity in vitro, guinea pig right atria (blockade of isoproterenol rate response). To be noted: Table I; guinea pig right atria, isoproterenol agonist, 60-minute incubation, 37° C.; read-out: PA2 Rt. Atria (converted).

Data set [2] has as its system beta adrenergic receptor (guinea pig trachea vs right atria). Put plainly: Degree of cardioselectivity in vitro, KB trachea/KB atria. The following applies: Table I; ratio greater than one indicates cardioselectivity. Here is the method:
Each tissue was suspended between a fixed glass rod and a Statham Universal Transducer connected to a Beckman recorder. Atria were allowed to beat spontaneously under a loading tension of approximately 0.5 gm. Intrinsic depressant or stimulant activity was determined for each compound by progressively increasing concentrations in the tissue baths at 60-minute intervals. Tissues were not washed between increments. The maximum concentration showing little or no cardiodepressant activity was chosen for blockade experiments. Changes in rate in response to isoproterenol, a standard β-receptor agonist, were measured in the absence and presence of test compounds. Spiral strips of guinea pig trachea were suspended under 5 gm resting tension and incubated with phentolamine, tropolone and cocaine. Active tension was generated by addition of carbachol (3.0×10^-7 M) and decreases in tension in response to isoproterenol were quantitated. Cumulative concentration-response curves were produced with isoproterenol both before and after 60-minute incubation of test compounds with atria and trachea. […] The blocking potency of test compounds was estimated by computing pA2 values (-log […]) by the method of Furchgott, the Pharmacological Differentiation of Adrenergie Receptors, Ann. […] The degree of cardioselectivity was estimated from the ratio, KB trachea/KB atria (10^(pA.sbsp.2^atria-pA.sbsp.2^trachea)). A ratio greater than one indicates cardioselectivity. Test drugs were dissolved in distilled water and added to the bath (30 ml) in a volume of 10 or 100 μl.

The nature of data set [3]: Enzymatic hydrolysis of beta blockers by dog liver homogenate (procedure C). To be noted: for remaining at 1 h / remaining at 2 h: dog, liver homogenate, 37° C.; for remaining at 1 h: read-out: Percent drug remaining, dog liver homogenate, 1 HR; for remaining at 2 h: read-out: Percent drug remaining, dog liver homogenate, 2 HR. Format: in vitro ADME. Here is the method:
(§1) Chemicals--Acetonitrile was "HPLC" grade. Distilled water was used to dissolve the compounds and 0.01N HCl was used to dissolve compounds requiring an acidic pH for dissolution.
(§2) Enzyme Source--Fresh aqueous humor was collected from eyes of dogs using a 23-gauge needle while fresh dog blood was collected into heparinized Vacutainer tubes. Fresh liver was homogenized in 0.9% NaCl using a Potter-Elvehjem Teflon pestle and glass homogenizer making a 25% (W/V) homogenate.
(§3) Incubation Condition--A 0.5 ml aliquot of dog aqueous humor, blood or liver homogenate was incubated with 12.5 μg (0.5 ml) of beta blocker in a Dubnoff shaking metabolic incubator at 37° C. for 60 and 120 min. Denatured tissue controls were prepared by adding 2.0 ml of acetonitrile into 0.5 ml of aqueous humor, blood or liver homogenate to destroy esterase activities prior to addition of the beta blockers. The controls were then incubated at 37° C. for 120 min. After 60 and 120 min, the incubations were terminated by addition of 2 ml of acetonitrile and immediately mixed by a Vortex® to stop esterase activities.
(§4) Sample Processing and Data Analyses--All samples were centrifuged at 4000 RPM for 10 min to sediment denatured proteins. The resultant supernatants were transferred to WISP® vials and analyzed using an HPLC assay developed for beta blockers. The hydrolysis of beta blockers by aqueous humor, blood and liver homogenate was determined by disappearance of the compounds. The extent of enzymatic hydrolysis by each tissue was determined by comparing the amount of each compound (absolute peak area) recovered at each time point to the amount of each compound (absolute peak area) in denatured tissue control and aqueous control samples. The results of these experiments are shown in Tabe III.

The nature of data set [4]: Half-lives of beta blockers in dog whole blood (procedure D). Format: in vitro ADME. The following applies: 37° C., read-out: T1/2 dog blood. Here is the method: (§5) The rate of disappearance of a compound is expressed as the half-life (T1/2), which is the time period in which one half of the initial amount of compound tested disappears. In each experiment, 1 ml of a solution containing 50 μg of the test compound was added to 1 ml of whole blood or 1 ml of a 33% (w/v) liver homogenate. The samples were incubated in a Dubnoff shaking metabolic incubator for 2.5, 5.0, 10.0, 20.0, 30.0 and 60.0 minutes at 37° C. At the designated time periods, the test mixtures were removed from the incubator and transferred to a 0° C. ice bath. Acetonitrile (2 ml) was immediately added and the mixtures were mixed to stop enzymatic hydrolysis. Zero time samples were prepared by adding 2 ml of acetonitrile to denature the proteins prior to addition of the test compounds. After centrifugation to sediment denatured proteins, 2 ml of the supernatant was removed and analyzed by high pressure liquid chromatography, using a mobile phase of 60% acetonitrile/40% 0.05 m sodium phosphate buffer (pH 6.6), a U.V. detector and Waters u Bondapak Phenyl column. The half life of each test compound was determined graphically by plotting the decrease in concentrations as a function of time.

Data set [5] can be described thus: Enzymatic hydrolysis of beta blockers by dog blood (procedure C). It counts as in vitro ADME. The following applies: for remaining at 1 h / remaining at 2 h: dog, blood, 37° C.; for remaining at 1 h: read-out: Percent drug remaining, dog blood, 1 HR; for remaining at 2 h: read-out: Percent drug remaining, dog blood, 2 HR. As for the experimental part: as §1, §2, §3, §4

The nature of data set [6]: Enzymatic hydrolysis of beta blockers by dog aqueous humor (procedure C). The following applies: for remaining at 1 h / remaining at 2 h: 37° C.; for remaining at 1 h: read-out: Percent drug remaining, dog aqueous humor, 1 HR; for remaining at 2 h: read-out: Percent drug remaining, dog aqueous humor, 2 HR; for half-life: approximate value determined by procedure C, read-out: T1/2 dog aqueous humor; for metabolised at 1 h: one hour, read-out: hydrolyzed in aqueous humor after one hour; for metabolised at 2 h: two hours, read-out: hydrolyzed in aqueous humor after two hours. Format: in vitro ADME. As for the experimental part:
as §1, §2, §3, §4

The nature of data set [7]: Half-lives of beta blockers in dog liver homogenate (procedure D). It counts as in vitro ADME. The following applies: 33% (w/v) homogenate, 37° C., read-out: T1/2 dog liver homogenate. Here is the method:
as §5

In data set [8] the test system is beta adrenergic receptor (heart rate response to isoproterenol). Put plainly: Duration and potency of beta-blocking action in vivo, 3-hour infusion in pentobarbital-anesthetized dogs. The arrangement: species or system dog. The following applies: Table II; for Recovery Time 80% / Recovery Time 50%: after termination of 3-hour infusion; for Potency: infusion rate adjusted so isoproterenol inhibition averaged about 50% at end of 3-hour infusion; for % I (Percent inhibition of heart rate response to isoproterenol): isoproterenol 0.5 μg/kg bolus, 3-hour infusion. As for the experimental part: The duration of β-blockade was determined in vivo using pentobarbital-anesthetized dogs instrumented for measurement of heart rate using a Beckman cardiotachometer triggered electronically by a phasic aortic blood pressure signal. Both vagus nerves were severed in the cervical region and the animals were mechanically ventilated. The experimental design used employed a 3-hour infusion of test compound. Bolus doses of isoproterenol (0.5 μg/kg) were used to assess the degree of β-blockade and recovery from β-blockade after […] of the infusion. The doses were spaced at 10-minute intervals and were given before, during and following the infusion of test compounds. The infusion rate was adjusted so that at the end of the 3-hour infusion period the degree of isoproterenol inhibition averaged about 50% of control. Following termination of blocker infusion, percent recovery from β-blockade was computed and the time associated with 80% recovery estimated.

The conditions of data set [9]: Physician's Desk Reference, 35th Edition, 1981, p. 1233; cited from earlier work.

Where a name gives a salt, the structure may show the parent alone.

T1 sequence (H0W3H1 1-470): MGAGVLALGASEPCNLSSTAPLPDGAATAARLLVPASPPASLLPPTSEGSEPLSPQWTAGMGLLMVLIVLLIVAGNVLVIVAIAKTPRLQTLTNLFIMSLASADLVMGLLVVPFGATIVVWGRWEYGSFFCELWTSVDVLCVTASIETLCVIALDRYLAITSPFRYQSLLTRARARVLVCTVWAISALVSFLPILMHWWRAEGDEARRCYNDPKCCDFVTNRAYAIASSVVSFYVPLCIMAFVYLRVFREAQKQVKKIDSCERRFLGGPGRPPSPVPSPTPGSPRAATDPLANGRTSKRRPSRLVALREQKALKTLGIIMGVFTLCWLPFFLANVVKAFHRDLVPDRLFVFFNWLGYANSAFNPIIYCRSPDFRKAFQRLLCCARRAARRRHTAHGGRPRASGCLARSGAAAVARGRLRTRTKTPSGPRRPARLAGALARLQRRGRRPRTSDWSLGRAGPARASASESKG

`CC(C)(CNC(=O)N1CCOCC1)NCC(O)COC(=O)c1cc(O)cc(O)c1` (stereo not drawn) [XXXVIII, 3-[1,1-Dimethyl-2-(1-morpholinocarbonylamino)]ethylamino-2-hydroxypropyl 3,5-Dihydroxybenzoate Oxalate Hemihydrate]: the Kb in data set [1] was 1 nM. The “Cardioselectivity KB (Trachea)/KB (Atria)” value (shortened to “Cardioselectivity KB”) in [2] is 1.

As for `CC(C)(CNC(=O)Nc1ccccc1)NCC(O)COC(=O)c1ccccc1F` (stereo not drawn) [XII, 3-[1,1-Dimethyl-2-(phenylaminocarbonylamino)]ethylamino-2-hydroxypropyl 2-Fluorobenzoate], the Kb in [1] is 79.4 nM. The “Cardioselectivity KB” value in data set [2] was 5.

Consider `CC(C)(CNC(=O)N1CCOCC1)NCC(O)COC(=O)c1ccccc1F` (stereo not drawn) [Example II, 3-[1,1-Dimethyl-2-(1-morpholinocarbonylamino)]ethylamino-2-hydroxypropyl 2-Fluorobenzoate Hydrochloride], for which, in data set [3], the amount remaining (in general, the share of the starting amount still present when the sample was taken) at 1 h turned out to be 0% and the fraction remaining at 2 h worked out at 0%. In addition, the half-life in data set [4] came out at 15 min. Further, the Kb in data set [1] was 3.16 nM. In addition, in [5], the fraction remaining at 1 h stood at 0% and the amount remaining at 2 h was determined as 0%. For the same compound, in data set [6], the amount remaining at 1 h came out at 58%, the amount remaining at 2 h turned out to be 32%, the half-life fell in the range of 60 to 120 min and the metabolised at 1 h was determined as 42%. In data set [6], the metabolised at 2 h was determined as 68%. For the same compound, the “Cardioselectivity KB” value in data set [2] turned out to be 2.

Take `CC(C)(CNC(N)=O)NCC(O)COC(=O)c1ccccc1F` (stereo not drawn) [Example X, 3-[1,1-Dimethyl-2-(aminocarbonylamino)]ethylamino-2-hydroxypropyl 2-Fluorobenzoate]: the half-life in data set [7] amounted to 2.5 min; in [4], 15 min. Besides, the fraction remaining at 1 h in data set [3], in data set [5] and in [6] was 0% each time. Moreover, the share remaining at 2 h in [3], in data set [5] and in [6] was 0% throughout. In addition, the Kb in data set [1] is 20 nM. Moreover, the “Recovery Time 80%” value in [8] is 21 min. In data set [8], this compound gave a Potency of 0.7 mg/kg/180 min. Further, in data set [8], the “% I (Percent inhibition of heart rate response to isoproterenol)” value was 49%.

Take `CCOC(=O)NCC(C)(C)NCC(O)COC(=O)c1ccccc1F` (stereo not drawn) [IX, 3-[1,1-Dimethyl-2-(ethoxycarbonylamino)]ethylamino-2-hydroxypropyl 2-Fluorobenzoate Hydrochloride]: the half-life in data set [7] worked out at 1 min. In addition, in data set [3], the amount remaining at 1 h was determined as 0% and the amount remaining at 2 h turned out to be 0%. Also, the half-life in [4] worked out at 8 min. For the same compound, in data set [1], the Kb is 79.4 nM. Besides, in data set [5], the fraction remaining at 1 h was 0% and the amount remaining at 2 h is 0%. Also, in data set [6], the share remaining at 1 h is 0% and the amount remaining at 2 h amounted to 0%. In data set [8], the “Recovery Time 50%” value was 3 ± 1 min, the “Recovery Time 80%” value is on record as 8 ± 3 min, the Potency is 6.5 ± 1.8 mg/kg/180 min and the “% I (Percent inhibition of heart rate response to isoproterenol)” value was found to be 49 ± 4%.

Regarding `CC(C)(C)NC[C@H](O)COc1nsnc1N1CCOCC1` [timolol maleate], the “adverse reactions to topical use” value in data set [9] was “bronchospasm and heart failure, as well as cardiac conduction defects”.

As for `CC(C)(CNC(=O)Cc1ccccc1)NCC(O)COC(=O)c1ccccc1F` (stereo not drawn) [Example VII, 3-[1,1-Dimethyl-2-(benzylcarbonylamino)]ethylamino-2-hydroxypropyl 2-Fluorobenzoate Hydrochloride], in [7], the half-life is 25 min. In [3], the fraction remaining at 1 h is 0% and the amount remaining at 2 h is 0%. Further, the “hydrolysis in liver homogenate” value in [3] (within 60 minutes) is “completely hydrolyzed”. Further, in data set [4], the half-life was determined as 6 min. In data set [1], the Kb is 39.8 nM. For the same compound, in data set [5], the amount remaining at 1 h is 0% and the amount remaining at 2 h amounted to 0%. In addition, the “hydrolysis in dog blood” value in data set [5] (within 60 minutes) is on record as “completely hydrolyzed”. For the same compound, in data set [6], the fraction remaining at 1 h came to 69%, the amount remaining at 2 h amounted to 46%, the half-life was ~120 min and the metabolised at 1 h stood at 31%. The metabolised at 2 h in data set [6] came out at 54%. Also, in data set [8], the “Recovery Time 50%” value is on record as 8 min, the “Recovery Time 80%” value was 19 min, the Potency was 1.8 mg/kg/180 min and the “% I (Percent inhibition of heart rate response to isoproterenol)” value was determined as 68%.
